# Legend:
# [1] = test system: control sera (pooled serum of ten healthy LUMC hospital workers; commercial negative donor pooled serum from the Dutch bloodbank); assay type: binding, human; design: Binding of Control serum LUMC to linear peptides / Binding of Control serum Blood-bank to linear peptides / Binding of Control serum LUMC to looped peptides / Binding of Control Serum Blood-Bank to Looped peptides / Binding of Control serum LUMC to linear peptides of the protein M of SARS-CoV Urbani / Binding of Control serum Blood-bank to linear peptides of the protein M of SARS-CoV Urbani / Binding of Control serum LUMC to looped peptides of the protein M of SARS-CoV Urbani / Binding of Control Serum Blood-Bank to Looped peptides of the protein M of SARS-CoV Urbani: unit not given here
# [2] = test system: antibodies in sera from SARS patients (sera 1a, 1b, 2, 6, 37, 62, London, SARS-yellow, SARS-green); assay type: binding, human; design: Binding of serum 6 to linear peptides of protein X1 of SARS-CoV Urbani / Binding of serum 37 to linear peptides of protein X1 of SARS-CoV Urbani / Binding of serum 6 to looped/cyclic peptide (PEPSCAN-ELISA) / Binding of serum 37 to looped/cyclic peptide (PEPSCAN-ELISA) / Binding of serum 37 to looped/cyclic peptides of protein X1 of SARS-CoV Urbani / Binding of serum 6 to linear peptides of protein X2 / Binding of serum 37 to linear peptides of protein X2 / Binding of serum 37 to looped/cyclic peptides of protein X2 of SARS-CoV Urbani / Binding of serum 6 to linear peptides of protein M of SARS-CoV Urbani / Binding of serum 37 to linear peptides of protein M of SARS-CoV Urbani / Binding of serum 6 to looped/cyclic peptides of protein M of SARS-CoV Urbani / Binding of serum 37 to looped/cyclic peptides of protein M of SARS-CoV Urbani / Binding of serum 6 to linear peptides of protein X3 of SARS-CoV Urbani / Binding of serum 37 to linear peptides of protein X3 of SARS-CoV Urbani / Binding of serum 37 to looped/cyclic peptides of protein X3 of SARS-CoV Urbani / Binding of serum 6 to linear peptides of protein X4 of SARS-CoV Urbani / Binding of serum 37 to linear peptides of protein X4 of SARS-CoV Urbani / Binding of serum 37 to looped/cyclic peptides of protein X4 of SARS-CoV Urbani / Binding of serum 6 to linear peptides of protein X5 of SARS-CoV Urbani / Binding of serum 37 to linear peptides of protein X5 of SARS-CoV Urbani / Binding of serum 37 to looped/cyclic peptides of protein X5 of SARS-CoV Urbani / Binding of serum 6 to linear peptides of protein N of SARS-CoV Urbani / Binding of serum 37 to linear peptides of protein N of SARS-CoV Urbani / Binding of serum 6 to linear peptide (PEPSCAN-ELISA) / Binding of serum 1a to looped/cyclic peptides of protein N of SARS-CoV Urbani / Binding of serum 1b to looped/cyclic peptides of protein N of SARS-CoV Urbani / Binding of serum 2 to looped/cyclic peptides of protein N of SARS-CoV Urbani / Binding of serum 6 to looped/cyclic peptides of protein N of SARS-CoV Urbani / Binding of serum 37 to looped/cyclic peptides of protein N of SARS-CoV Urbani / Binding of serum 62 to looped/cyclic peptides of protein N of SARS-CoV Urbani / Binding of serum London to looped/cyclic peptides of protein N of SARS-CoV Urbani / Binding of serum SARS-green to looped/cyclic peptides of protein N of SARS-CoV Urbani: unit not given here
# [3] = test system: rabbit serum obtained by immunizing a rabbit with the SARS-CoV strain Frankfurt 1; assay type: binding; design: Binding of a rabbit serum to linear peptides / Binding of a rabbit serum to looped peptides / Rabbit serum linear peptides / Rabbit serum looped peptides / Binding of a rabbit serum to linear peptides of protein N of SARS-CoV Urbani (Rabbit serum linear peptides) / Binding of a rabbit serum to looped/cyclic peptides of protein N of SARS-CoV Urbani (Rabbit serum looped peptides): unit not given here
sequence,measurement,setting,value
VIGFLFLAWIMLLQF,Binding of Control Serum Blood-Bank to Looped peptides of the protein M of SARS-CoV Urbani,[1],0.7
same,Binding of Control serum Blood-bank to linear peptides of the protein M of SARS-CoV Urbani,[1],0.5
same,Binding of Control serum LUMC to linear peptides of the protein M of SARS-CoV Urbani,[1],0.3
same,Binding of Control serum LUMC to looped peptides of the protein M of SARS-CoV Urbani,[1],0.7
same,Binding of serum 1a to linear peptides of protein M of SARS-CoV Urbani,[2],0.7
same,Binding of serum 1a to looped/cyclic peptides of protein M of SARS-CoV Urbani,[2],0.7
same,Binding of serum 1b to linear peptides of protein M of SARS-CoV Urbani,[2],0.4
same,Binding of serum 1b to looped/cyclic peptides of protein M of SARS-CoV Urbani,[2],0.4
same,Binding of serum 2 to linear peptides of protein M of SARS-CoV Urbani,[2],0.4
same,Binding of serum 2 to looped/cyclic peptides of protein M of SARS-CoV Urbani,[2],0.5
same,Binding of serum 6 to linear peptides of protein M of SARS-CoV Urbani,[2],0.3
same,Binding of serum 6 to looped/cyclic peptides of protein M of SARS-CoV Urbani,[2],0.5
same,Binding of serum 37 to linear peptides of protein M of SARS-CoV Urbani,[2],0.7
same,Binding of serum 37 to looped/cyclic peptides of protein M of SARS-CoV Urbani,[2],0.5
same,Binding of serum 62 to linear peptides of protein M of SARS-CoV Urbani,[2],0.7
same,Binding of serum 62 to looped/cyclic peptides of protein M of SARS-CoV Urbani,[2],0.7
same,Binding of serum London to linear peptides of protein M of SARS-CoV Urbani,[2],0.3
same,Binding of serum London to looped/cyclic peptides of protein M of SARS-CoV Urbani,[2],0.2
same,Binding of serum SARS-green to linear peptides of protein M of SARS-CoV Urbani,[2],0.2
same,Binding of serum SARS-green to looped/cyclic peptides of protein M of SARS-CoV Urbani,[2],0.3
same,Binding of serum SARS-yellow to linear peptides of protein M of SARS-CoV Urbani,[2],0.0
same,Binding of serum SARS-yellow to looped/cyclic peptides of protein M of SARS-CoV Urbani,[2],0.6
same,Rabbit serum linear peptides,[3],0.3
same,Rabbit serum looped peptides,[3],0.3
LNKRWQLALYKGFQF,Binding of Control Serum Blood-Bank to Looped peptides,[1],0.6
same,Binding of Control serum Blood-bank to linear peptides,[1],0.8
same,Binding of Control serum LUMC to linear peptides,[1],0.6
same,Binding of Control serum LUMC to looped peptides,[1],0.6
same,Binding of serum 1a to linear peptides of protein X1 of SARS-CoV Urbani,[2],0.6
same,Binding of serum 1a to looped/cyclic peptide (PEPSCAN-ELISA),[2],0.6
same,Binding of serum 1b to linear peptides of protein X1 of SARS-CoV Urbani,[2],0.7
same,Binding of serum 1b to looped/cyclic peptide (PEPSCAN-ELISA),[2],0.4
same,Binding of serum 2 to linear peptides of protein X1 of SARS-CoV Urbani,[2],0.8
same,Binding of serum 2 to looped/cyclic peptide (PEPSCAN-ELISA),[2],0.5
same,Binding of serum 6 to linear peptides of protein X1 of SARS-CoV Urbani,[2],0.8
same,Binding of serum 6 to looped/cyclic peptide (PEPSCAN-ELISA),[2],0.5
same,Binding of serum 37 to linear peptides of protein X1 of SARS-CoV Urbani,[2],0.6
same,Binding of serum 37 to looped/cyclic peptide (PEPSCAN-ELISA),[2],0.5
same,Binding of serum 62 to linear peptides of protein X1 of SARS-CoV Urbani,[2],0.6
same,Binding of serum 62 to looped/cyclic peptide (PEPSCAN-ELISA),[2],0.6
same,Binding of serum London to linear peptides of protein X1 of SARS-CoV Urbani,[2],0.3
same,Binding of serum London to looped/cyclic peptide (PEPSCAN-ELISA),[2],0.3
same,Binding of serum SARS-green to linear peptides of protein X1 of SARS-CoV Urbani,[2],0.3
same,Binding of serum SARS-green to looped/cyclic peptide (PEPSCAN-ELISA),[2],0.1
same,Binding of serum SARS-yellow to linear peptides of protein X1 of SARS-CoV Urbani,[2],0.3
same,Binding of serum SARS-yellow to looped/cyclic peptide (PEPSCAN-ELISA),[2],0.4
same,Recognition of the peptide by the rabbit serum,[3],recognized
AFLAVFQSATKIIAL,Binding of Control Serum Blood-Bank to Looped peptides,[1],0.7
same,Binding of Control serum Blood-bank to linear peptides,[1],0.5
same,Binding of Control serum LUMC to linear peptides,[1],0.5
same,Binding of Control serum LUMC to looped peptides,[1],0.6
same,Binding of serum 1a to linear peptides of protein X1 of SARS-CoV Urbani,[2],0.7
same,Binding of serum 1a to looped/cyclic peptide (PEPSCAN-ELISA),[2],0.5
same,Binding of serum 1b to linear peptides of protein X1 of SARS-CoV Urbani,[2],0.4
same,Binding of serum 1b to looped/cyclic peptide (PEPSCAN-ELISA),[2],0.4
same,Binding of serum 2 to linear peptides of protein X1 of SARS-CoV Urbani,[2],0.5
same,Binding of serum 2 to looped/cyclic peptide (PEPSCAN-ELISA),[2],0.5
same,Binding of serum 6 to linear peptides of protein X1 of SARS-CoV Urbani,[2],0.4
same,Binding of serum 6 to looped/cyclic peptide (PEPSCAN-ELISA),[2],1.3
same,Binding of serum 37 to linear peptides of protein X1 of SARS-CoV Urbani,[2],0.6
same,Binding of serum 37 to looped/cyclic peptide (PEPSCAN-ELISA),[2],0.6
same,Binding of serum 62 to linear peptides of protein X1 of SARS-CoV Urbani,[2],0.5
same,Binding of serum 62 to looped/cyclic peptide (PEPSCAN-ELISA),[2],0.6
same,Binding of serum London to linear peptides of protein X1 of SARS-CoV Urbani,[2],0.2
same,Binding of serum London to looped/cyclic peptide (PEPSCAN-ELISA),[2],1.6
same,Binding of serum SARS-green to linear peptides of protein X1 of SARS-CoV Urbani,[2],0.3
same,Binding of serum SARS-green to looped/cyclic peptide (PEPSCAN-ELISA),[2],0.3
same,Binding of serum SARS-yellow to linear peptides of protein X1 of SARS-CoV Urbani,[2],0.3
same,Binding of serum SARS-yellow to looped/cyclic peptide (PEPSCAN-ELISA),[2],0.6
same,Binding of a rabbit serum to linear peptides,[3],0.2
same,Binding of a rabbit serum to looped peptides,[3],0.8
FALTCTSTHFAFACA,Binding of Control Serum Blood-Bank to Looped peptides,[1],0.7
same,Binding of Control serum Blood-bank to linear peptides,[1],0.6
same,Binding of Control serum LUMC to linear peptides,[1],0.6
same,Binding of Control serum LUMC to looped peptides,[1],0.6
same,Binding of serum 1a to linear peptides of protein X4 of SARS-CoV Urbani,[2],0.7
same,Binding of serum 1a to looped/cyclic peptides of protein X4 of SARS-CoV Urbani,[2],0.8
same,Binding of serum 1b to linear peptides of protein X4 of SARS-CoV Urbani,[2],0.5
same,Binding of serum 1b to looped/cyclic peptides of protein X4 of SARS-CoV Urbani,[2],0.5
same,Binding of serum 2 to linear peptides of protein X4 of SARS-CoV Urbani,[2],0.4
same,Binding of serum 2 to looped/cyclic peptides of protein X4 of SARS-CoV Urbani,[2],0.7
same,Binding of serum 6 to linear peptides of protein X4 of SARS-CoV Urbani,[2],0.5
same,Binding of serum 6 to looped/cyclic peptides of protein X4 of SARS-CoV Urbani,[2],0.5
same,Binding of serum 37 to linear peptides of protein X4 of SARS-CoV Urbani,[2],0.7
same,Binding of serum 37 to looped/cyclic peptides of protein X4 of SARS-CoV Urbani,[2],0.6
same,Binding of serum 62 to linear peptides of protein X4 of SARS-CoV Urbani,[2],0.7
same,Binding of serum 62 to looped/cyclic peptides of protein X4 of SARS-CoV Urbani,[2],0.7
same,Binding of serum London to linear peptides of protein X4 of SARS-CoV Urbani,[2],0.7
same,Binding of serum London to looped/cyclic peptides of protein X4 of SARS-CoV Urbani,[2],0.3
same,Binding of serum SARS-green to linear peptides of protein X4 of SARS-CoV Urbani,[2],0.5
same,Binding of serum SARS-green to looped/cyclic peptides of protein X4 of SARS-CoV Urbani,[2],0.5
same,Binding of serum SARS-yellow to linear peptides of protein X4 of SARS-CoV Urbani,[2],0.6
same,Binding of serum SARS-yellow to looped/cyclic peptides of protein X4 of SARS-CoV Urbani,[2],0.7
same,Rabbit serum linear peptides,[3],0.6
same,Rabbit serum looped peptides,[3],0.4
LLNVPLRGTIVTRPL,Binding of Control Serum Blood-Bank to Looped peptides of the protein M of SARS-CoV Urbani,[1],0.9
same,Binding of Control serum Blood-bank to linear peptides of the protein M of SARS-CoV Urbani,[1],0.7
same,Binding of Control serum LUMC to linear peptides of the protein M of SARS-CoV Urbani,[1],0.4
same,Binding of Control serum LUMC to looped peptides of the protein M of SARS-CoV Urbani,[1],0.5
same,Binding of serum 1a to linear peptides of protein M of SARS-CoV Urbani,[2],0.8
same,Binding of serum 1b to linear peptides of protein M of SARS-CoV Urbani,[2],0.5
same,Binding of serum 2 to linear peptides of protein M of SARS-CoV Urbani,[2],0.5
same,Binding of serum 6 to linear peptides of protein M of SARS-CoV Urbani,[2],0.5
same,Binding of serum 37 to linear peptides of protein M of SARS-CoV Urbani,[2],0.6
same,Binding of serum 62 to linear peptides of protein M of SARS-CoV Urbani,[2],0.7
same,Binding of serum London to linear peptides of protein M of SARS-CoV Urbani,[2],0.4
same,Binding of serum SARS-green to linear peptides of protein M of SARS-CoV Urbani,[2],0.3
same,Binding of serum SARS-yellow to linear peptides of protein M of SARS-CoV Urbani,[2],0.1
same,"Recognition of the peptide by sera of SARS-CoV infected individuals, and form (linear, looped/cyclic) in which it is recognized",[2],recognized in looped/cyclic form
same,Rabbit serum linear peptides,[3],0.4
same,Rabbit serum looped peptides,[3],0.0
